Experimental data: PubChem BioAssay AID248 (DTP/NCI, 2004)
Values joined by “and” are separate entries in the source; they are usually repeats but may differ in a detail not shown here. Equal entries are not always repeated. Toxic doses and inconclusive results are not listed. Rule as the data show it: active = T/C of 150% or more; inactive = T/C below 125%.

Tested on: L1210 leukemia ip in BDF1 mice, survival T/C
Assay: NCI In Vivo Anticancer Drug Screen. Data for tumor model L1210 Leukemia (intraperitoneal) in B6D2F1 (BDF1) mice
Details: endpoint: mean survival time, higher = longer survival
Summary of the method: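 Antitumor effect is assessed in tumor-bearing animals. Survival in the compound arm is compared with a vehicle-dosed control arm and expressed as their quotient.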

[1] = dose: 100.0 mg/kg/injection, schedule: Q01DX009 (ip), vehicle: Klucel (hydroxypropylcellulose) (HPC)
[2] = dose: 100.0 mg/kg/injection, schedule: Q04DX003 (ip), vehicle: Klucel (hydroxypropylcellulose) (HPC)
[3] = dose: 200.0 mg/kg/injection, schedule: Q01DX009 (ip), vehicle: Klucel (hydroxypropylcellulose) (HPC)
[4] = dose: 200.0 mg/kg/injection, schedule: Q04DX003 (ip), vehicle: Klucel (hydroxypropylcellulose) (HPC)
[5] = dose: 100.0 mg/kg/injection, schedule: Q04DX002 (ip), vehicle: saline
[6] = dose: 100.0 mg/kg/injection, schedule: Q04DX003 (ip), vehicle: saline with Tween-80
[7] = dose: 200.0 mg/kg/injection, schedule: Q04DX003 (ip), vehicle: saline with Tween-80
[8] = dose: 400.0 mg/kg/injection, schedule: Q04DX003 (ip), vehicle: saline with Tween-80
[9] = dose: 400.0 mg/kg/injection, schedule: Q01DX009 (ip), vehicle: Klucel (hydroxypropylcellulose) (HPC)
[10] = dose: 100.0 mg/kg/injection, schedule: Q04DX002 (ip), vehicle: Klucel (hydroxypropylcellulose) (HPC)
[11] = dose: 200.0 mg/kg/injection, schedule: Q04DX002 (ip), vehicle: Klucel (hydroxypropylcellulose) (HPC)
[12] = dose: 400.0 mg/kg/injection, schedule: Q04DX003 (ip), vehicle: Klucel (hydroxypropylcellulose) (HPC)
[13] = dose: 100.0 mg/kg/injection, schedule: Q04DX003 (ip), vehicle: saline

Measured: T/C

CCCCOCCOCCOc1ccc(C(=O)OC)cc1
inactive: dose: 100.0 mg/kg/injection, schedule: Q01DX001 (ip), vehicle: saline sonified 103 % of control | dose: 200.0 mg/kg/injection, schedule: Q01DX001 (ip), vehicle: saline sonified 96 % of control | dose: 400.0 mg/kg/injection, schedule: Q01DX001 (ip), vehicle: saline sonified 100 % of control

COc1cc(/C=C(/C)[N+](=O)[O-])ccc1O
inactive: dose: 6.0 mg/kg/injection, schedule: Q01DX009 (ip), vehicle: carboxymethylcellulose (CMC) 112 % of control | dose: 12.0 mg/kg/injection, schedule: Q01DX009 (ip), vehicle: carboxymethylcellulose (CMC) 92 % of control | dose: 25.0 mg/kg/injection, schedule: Q01DX009 (ip), vehicle: Klucel (hydroxypropylcellulose) (HPC) 112 % of control | dose: 25.0 mg/kg/injection, schedule: Q01DX009 (ip), vehicle: carboxymethylcellulose (CMC) 105 % of control | dose: 50.0 mg/kg/injection, schedule: Q01DX009 (ip), vehicle: Klucel (hydroxypropylcellulose) (HPC) 100 % of control | dose: 50.0 mg/kg/injection, schedule: Q01DX009 (ip), vehicle: carboxymethylcellulose (CMC) 100 % of control and 103 % of control | dose: 50.0 mg/kg/injection, schedule: Q04DX003 (ip), vehicle: Klucel (hydroxypropylcellulose) (HPC) 97 % of control | [1] 109 % of control | [2] 105 % of control | [3] 103 % of control | [4] 103 % of control

O=S1(=O)CS(=O)(=O)CS(=O)(=O)C1
inactive: [5] 108 % of control | dose: 200.0 mg/kg/injection, schedule: Q04DX002 (ip), vehicle: saline 119 % of control | dose: 400.0 mg/kg/injection, schedule: Q04DX002 (ip), vehicle: saline 101 % of control

O=C1CC2C=CCC12 (stereo not given)
inactive: [6] 95 % of control | [7] 93 % of control | [8] 93 % of control

Cc1cc(C)c(NC(=O)C(Br)C(Br)c2ccccc2)c(C)c1 (stereo not given)
inactive: [1] 98 % of control | [3] 98 % of control | [9] 98 % of control

O=C1OC(c2c3ccccc3cc3ccccc23)c2ccccc21 (stereo not given)
inactive: dose: 50.0 mg/kg/injection, schedule: Q01DX009 (ip), vehicle: saline with Tween-80 98 % of control | dose: 100.0 mg/kg/injection, schedule: Q01DX009 (ip), vehicle: saline with Tween-80 98 % of control | dose: 200.0 mg/kg/injection, schedule: Q01DX009 (ip), vehicle: saline with Tween-80 95 % of control

CC1CC(=O)NN1C(O)c1ccc2c(c1)OCO2 (stereo not given)
inactive: [10] 97 % of control | [11] 97 % of control

Clc1ccc(OCc2sc3ccc(Cl)cc3c2CN2CCOCC2)cc1
inactive: [6] 91 % of control | [7] 90 % of control | [8] 91 % of control

CN(C)N=Nc1cn(C)c(=O)[nH]c1=O
inactive: dose: 50.0 mg/kg/injection, schedule: Q04DX003 (ip), vehicle: water 114 % of control | dose: 400.0 mg/kg/injection, schedule: Q04DX003 (ip), vehicle: water 112 % of control

CCOC(CCl)[N+](C)(C)C (stereo not given)
inactive: [5] 91 % of control

COc1ccccc1NC(=O)Nc1ccc(Nc2ccccc2)cc1
inactive: [1] 101 % of control | [2] 103 % of control | [3] 104 % of control | [4] 91 % of control | [9] 104 % of control | [12] 97 % of control

FC(F)(F)c1cc(Cl)ccc1Cl
inactive: dose: 80.0 mg/kg/injection, schedule: Q01DX009 (ip), vehicle: Klucel (hydroxypropylcellulose) (HPC) 100 % of control | [2] 101 % of control and 106 % of control | dose: 160.0 mg/kg/injection, schedule: Q01DX009 (ip), vehicle: Klucel (hydroxypropylcellulose) (HPC) 102 % of control | [4] 92 % of control and 104 % of control | dose: 320.0 mg/kg/injection, schedule: Q01DX009 (ip), vehicle: Klucel (hydroxypropylcellulose) (HPC) 111 % of control | [12] 99 % of control and 102 % of control

CCOc1ccc2nc(/C=C\c3cc4c5c(c3)CCCN5CCC4)ccc2c1
inactive: [1] 87 % of control | [2] 95 % of control | [3] 97 % of control | [4] 98 % of control | [9] 97 % of control | [12] 98 % of control

O=S1(=O)CCCN1c1ccccn1
inactive: dose: 100.0 mg/kg/injection, schedule: Q04DX002 (ip), vehicle: other 104 % of control | dose: 200.0 mg/kg/injection, schedule: Q04DX002 (ip), vehicle: other 89 % of control | dose: 400.0 mg/kg/injection, schedule: Q04DX002 (ip), vehicle: other 96 % of control

COC(=O)c1nc2c(N)nc(-c3ccccc3)nc2nc1N
inactive: [2] 103 % of control | [4] 98 % of control | [12] 106 % of control

Cn1nnnc1CCO
inactive: dose: 100.0 mg/kg/injection, schedule: Q01DX001 (ip), vehicle: acetone 94 % of control | dose: 200.0 mg/kg/injection, schedule: Q01DX001 (ip), vehicle: acetone 97 % of control | dose: 400.0 mg/kg/injection, schedule: Q01DX001 (ip), vehicle: acetone 97 % of control

c1ccc(P(CCP(c2ccccc2)c2ccccc2)CCP(c2ccccc2)c2ccccc2)cc1
inactive: [2] 91 % of control | [4] 96 % of control | [12] 96 % of control

CN/N=C/c1ccc([N+](=O)[O-])cc1
inactive: dose: 25.0 mg/kg/injection, schedule: Q04DX002 (ip), vehicle: DMSO 96 % of control | dose: 50.0 mg/kg/injection, schedule: Q04DX002 (ip), vehicle: DMSO 96 % of control | dose: 100.0 mg/kg/injection, schedule: Q04DX002 (ip), vehicle: DMSO 96 % of control and 98 % of control | dose: 200.0 mg/kg/injection, schedule: Q04DX002 (ip), vehicle: DMSO 88 % of control

CCN(CC)C(=S)Oc1ccc(OC(=S)N(CC)CC)cc1
inactive: dose: 12.5 mg/kg/injection, schedule: Q04DX002 (ip), vehicle: saline with Tween-80 93 % of control | dose: 25.0 mg/kg/injection, schedule: Q04DX002 (ip), vehicle: saline with Tween-80 97 % of control | dose: 50.0 mg/kg/injection, schedule: Q04DX002 (ip), vehicle: saline with Tween-80 93 % of control | [7] 89 % of control | [8] 91 % of control

COC1OC(CN(CCO)CCO)C2OC(C)(C)OC12 (stereo not given)
inactive: dose: 12.5 mg/kg/injection, schedule: Q04DX003 (ip), vehicle: saline 97 % of control | dose: 25.0 mg/kg/injection, schedule: Q01DX009 (ip), vehicle: saline 98 % of control | dose: 25.0 mg/kg/injection, schedule: Q04DX003 (ip), vehicle: saline 89 % of control | dose: 50.0 mg/kg/injection, schedule: Q01DX009 (ip), vehicle: saline 94 % of control | dose: 50.0 mg/kg/injection, schedule: Q04DX003 (ip), vehicle: saline 97 % of control | dose: 100.0 mg/kg/injection, schedule: Q01DX009 (ip), vehicle: saline 89 % of control | [13] 94 % of control | dose: 335.0 mg/kg/injection, schedule: Q01DX009 (ip), vehicle: saline 101 % of control

COC1=NS(=O)(=O)N=C(c2ccc(OC)cc2)O1
inactive: [10] 103 % of control | [11] 100 % of control | dose: 400.0 mg/kg/injection, schedule: Q04DX002 (ip), vehicle: Klucel (hydroxypropylcellulose) (HPC) 89 % of control

COc1cccc(N2C(=O)CC(=P(c3ccccc3)(c3ccccc3)c3ccccc3)C2=O)c1
inactive: dose: 75.0 mg/kg/injection, schedule: Q01DX001 (ip), vehicle: saline 96 % of control | dose: 150.0 mg/kg/injection, schedule: Q01DX001 (ip), vehicle: saline 95 % of control

COc1ccccc1-n1c(=O)c(N=Nc2ccc(Cl)cc2)c(O)n(-c2ccccc2Cl)c1=S
inactive: dose: 50.0 mg/kg/injection, schedule: Q01DX001 (ip), vehicle: Klucel (hydroxypropylcellulose) (HPC) 94 % of control | dose: 100.0 mg/kg/injection, schedule: Q01DX001 (ip), vehicle: Klucel (hydroxypropylcellulose) (HPC) 101 % of control | dose: 200.0 mg/kg/injection, schedule: Q01DX001 (ip), vehicle: Klucel (hydroxypropylcellulose) (HPC) 92 % of control

CN(C)c1ccc(N=C2C(c3ccccc3)=CC(c3ccccc3)=C2c2ccccc2)cc1
inactive: dose: 50.0 mg/kg/injection, schedule: Q01DX001 (ip), vehicle: carboxymethylcellulose (CMC) 89 % of control | dose: 100.0 mg/kg/injection, schedule: Q01DX001 (ip), vehicle: carboxymethylcellulose (CMC) 91 % of control | dose: 200.0 mg/kg/injection, schedule: Q01DX001 (ip), vehicle: carboxymethylcellulose (CMC) 94 % of control | dose: 400.0 mg/kg/injection, schedule: Q01DX001 (ip), vehicle: carboxymethylcellulose (CMC) 97 % of control

CC1(C)N=C(N)N=C(N)N1NC(=O)c1cccc(Cl)c1
inactive: [13] 101 % of control | dose: 200.0 mg/kg/injection, schedule: Q04DX003 (ip), vehicle: saline 94 % of control
